Data taken from patent US8268976B2, “Flea GABA receptor subunit nucleic acid molecules” (Heska Corporation, priority 2000, dated 2012).
Where two headings read alike, the source gives them in different places.

Assays:
cat fleas [1] = assay: Survival of dieldrin-exposed fleas from the heterozygous population, sorted by sequenced genotype at amino acid 285; assay type: in vivo, Ctenocephalides felis; settings: 10 mM and 50 mM dieldrin, pooled
Method: The following method was used to determine the genotype of individual fleas. Individual fleas were physically crushed with a pipette tip in a microcentrifuge tube with 30 μl of DNAzol, available from Gibco BRL, Rockville, Md., then heated to 95° C. for 5 minutes. The mixture was centrifuged for 2 minutes, the liquid was removed and DNA was precipitated with ethanol. The precipitated DNA was centrifuged, the ethanol was removed and the pellet was resuspended in 30 μl of distilled water. […] The following PCR thermocycling and reaction conditions were used (1) one cycle of 95° C. for 30 seconds, (2) 35 cycles of 94° C. for 10 seconds, 52° C. for 30 seconds, and 72° C. 30 seconds, in reactions containing 1× AmpliTaq Buffer, 2.0 U AmpliTaq polymerase, available from Perkin Elmer, Foster City, Calif., 0.2 mM dNTP's, and 0.5 uM each primer.
The PCR product was separated by gel electrophoresis and purified using a Qiaquick™ column, available from Qiagen to produce an approximately 240-nucleotide molecule. The 240-nucleotide product was then sequenced using primers 285for and 285rev and dRhodamine terminator chemistry and the sequence was read to determine whether the individual was homozygous for serine or alanine, or a heterozygote.
(§1) Dieldrin was dissolved in dimethylsulfoxide (DMSO) at concentrations ranging from 0.001 mM to 1000 mM. About 1 ul of dissolved dieldrin from each concentration was spotted onto a 6 mm diameter GF/C filter disk (Whatman, Inc. Clifton, N.J.) in the bottom of a 4 ml screw-top glass vial and allowed to air dry for 24 hours. Negative control vials were prepared in the same manner except that no dieldrin was dissolved in the DMSO. Each dieldrin concentration was tested in triplicate for each of the three flea populations. About 25 newly emerged cat fleas were sedated at 4° C. and transferred to each vial. Each vial was sealed with a thin, perforated Teflon septum secured by an open top screw cap and held vertically in the dark. After about 30 hours, the healthy live, moribund, and dead fleas in each vial were counted.

cat fleas [2] = assay: Dieldrin filter-disk vial exposure of fleas, mortality (LC50) per flea population; settings: Ctenocephalides felis, in Felis catus, 30 h, about 1 ul of DMSO solution on filter disk in vial, about 30 hours
Method: as §1

## ClC1=C(Cl)[C@]2(Cl)[C@@H]3[C@@H]4C[C@@H]([C@H]5O[C@@H]45)[C@@H]3[C@@]1(Cl)C2(Cl)Cl [dieldrin]
Cat fleas [1]; of 1 homozygous alanine flea
  number of dead fleas: 1
Cat fleas [1]; of 21 homozygous serine fleas
  number of dead fleas: 4
  number of live fleas: 16
  number of moribund fleas: 1
Cat fleas [1]; of 29 heterozygotes
  number of dead fleas: 24
  number of live fleas: 2
  number of moribund fleas: 3
Cat fleas [2]; read-out: LC50 (concentration of dieldrin at which 50% of the fleas were killed), heterozygous alanine/serine flea population (amino acid 285)
  LC50: 1 mM
Cat fleas [2]; read-out: LC50 (concentration of dieldrin at which 50% of the fleas were killed), homozygous alanine flea population (amino acid 285)
  LC50: 0.2 mM
Cat fleas [2]; read-out: LC50 (concentration of dieldrin at which 50% of the fleas were killed), homozygous serine flea population (amino acid 285)
  LC50: 30 mM
